Data as given in patent publication US11724078B2, “Methods and systems for trans-tissue substance delivery using plasmaporation” (GOJO INDUSTRIES, INC., priority 2016, dated 2023).

Assay: Transport of substance applied to plasma treated area through open pores in the SC
Details: applied more than 5 minutes after plasma treatment

passage through the SC when applied after 5 minutes: no longer passed through the SC
Substance: Dextran [10 kDa Dextran]
